Test results taken from patent US20250346592A1 (Celgene Corporation, priority 2022, published 2025).

Each compound was assayed against hPAD4 enzyme (Homo sapiens (Human), UniProt Q9UM07) (assay: RFMS2 assay (RapidFire mass spectrometry, TSTGGRQGSHH peptide substrate)). Details: 35 nM recombinant human PAD4, 500 μM TSTGGRQGSHH peptide, 30 minutes at room temperature; read-out: RFMS 2 IC50.
Type: biochemical
Protocol: Stock compounds were dissolved and stored in 100% DMSO. Compound solutions were prepared via serial dilution at 3-fold intervals in DMSO with top compound concentration at 20 μM in each assay. 0.25 μl of compound solution was transferred from the compound plate to the assay plate by using an acoustic dispenser.
• Total reaction volume: 25 μl • Assay buffer: […] pH 7.4, 200 mM NaCl, 2 mM CaCl2, 5 mM DTT • 35 nM recombinant human PAD4 • 500 μM TSTGGRQGSHH peptide • 1.2% DMSO • Stop solution: 10% formic acid
Reaction mixtures were incubated at room temperature for 30 minutes. 10 μl each of the reaction mixtures was then mixed with 40 μl of 10% formic acid in a microtiter plate. The plate was frozen at −80° C. before shipping out on dry ice for RapidFire mass spectroscopy analysis.
Thawed samples were loaded onto the Rapid Fire 300 system (Agilent) wherein they were first sipped for 250 ms and then loaded onto a Agilent “C” (C18) cartridge using a mobile phase of water containing 0.09% formic acid/0.01% trifluoroacetic acid for 3000 ms desalting flowing at a rate of 1.5 ml/min. Once the samples were loaded and washed, a mobile phase of acetonitrile containing 0.09% formic acid/0.01% trifluoroacetic acid was used to elute the samples directly onto a Sciex API4000 triple quadrupole mass spectrometer for 3000 ms at a flow rate of 1.25 ml/min.
MRM transitions for substrate and product were monitored in positive ESI mode at m/z=562.3/969.7 and m/z=562.8/541.3 respectively. The dwell time for each transition was set at 100 ms, and the ESI voltage was used at 5500 with a source temperature of 650° C. Extracted ion peaks for each transition were integrated using the Rapid Fire Integrator software.
Compounds having an activity designated as “A” provided an IC50≤10 nM; compounds having an activity designated as “B” provided an IC50 11-100 nM; compounds having an activity designated as “C” provided an IC50 101-500 nM; compounds having an activity designated as “D” provided an IC50 501-1000 nM; compounds having an activity designated as “E” provided an IC50>1000 nM.

Chain of hPAD4 enzyme (Q9UM07 whole entry): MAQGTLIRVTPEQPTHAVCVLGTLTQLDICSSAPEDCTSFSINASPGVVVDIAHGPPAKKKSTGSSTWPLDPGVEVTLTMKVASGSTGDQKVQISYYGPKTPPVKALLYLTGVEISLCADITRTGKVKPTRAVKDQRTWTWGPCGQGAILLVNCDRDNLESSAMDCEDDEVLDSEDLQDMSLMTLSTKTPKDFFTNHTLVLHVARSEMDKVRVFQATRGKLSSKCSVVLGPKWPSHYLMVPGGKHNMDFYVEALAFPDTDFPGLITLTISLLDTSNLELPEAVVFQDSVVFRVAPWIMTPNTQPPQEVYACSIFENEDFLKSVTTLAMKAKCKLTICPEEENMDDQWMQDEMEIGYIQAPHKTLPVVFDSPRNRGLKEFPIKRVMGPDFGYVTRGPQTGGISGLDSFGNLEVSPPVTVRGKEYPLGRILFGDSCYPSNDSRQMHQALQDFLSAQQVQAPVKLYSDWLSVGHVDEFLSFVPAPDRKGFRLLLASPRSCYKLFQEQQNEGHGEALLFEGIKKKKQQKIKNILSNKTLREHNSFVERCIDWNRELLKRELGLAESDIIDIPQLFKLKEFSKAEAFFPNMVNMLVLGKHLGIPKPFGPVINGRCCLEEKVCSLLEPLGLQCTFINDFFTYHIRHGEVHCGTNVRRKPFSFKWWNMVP

| SMILES | IC50 [nM] |
| --- | --- |
| COc1ccc2cc(-c3nc4cc5c(cc4n3C)CCN(C[C@H](N)CF)C5=O)n(CC3CC3)c2n1 [Example 62, (S)-6-(2-amino-3-fluoropropyl)-2-(1-(cyclopropylmethyl)-6-methoxy-1H-pyrrolo[2,3-b]pyridin-2-yl)-1-methyl-1,6,7,8-tetrahydro-H-imidazo[4,5-g]isoquinolin-5-one] | 101 to 500 |
| CNC(=O)c1ccc2cc(-c3nc4cc5c(cc4n3C)CCN(C[C@H](N)CF)C5=O)n(CC3CC3)c2n1 [Example 63, (S)-2-(6-(2-amino-3-fluoropropyl)-1-methyl-5-oxo-5,6,7,8-tetrahydro-1H-imidazo[4,5-g]isoquinolin-2-yl)-1-(cyclopropylmethyl)-N-methyl-1H-pyrrolo[2,3-b]pyridine-6-carboxamide] | 501 to 1000 |
| CN(C)C(=O)c1ccc2cc(-c3nc4cc5c(cc4n3C)CCN(C[C@H](N)CF)C5=O)n(CC3CC3)c2n1 [Example 64, (S)-2-(6-(2-amino-3-fluoropropyl)-1-methyl-5-oxo-5,6,7,8-tetrahydro-1H-imidazo[4,5-g]isoquinolin-2-yl)-1-(cyclopropylmethyl)-N,N-dimethyl-1H-pyrrolo[2,3-b]pyridine-6-carboxamide] | 501 to 1000 |
| COc1c(F)ccc2cc(-c3nc4cc5c(cc4n3C)CCN(C[C@H](N)CF)C5=O)n(CC3CC3)c12 [Example 66, (S)-6-(2-amino-3-fluoropropyl)-2-(1-(cyclopropylmethyl)-6-fluoro-7-methoxy-1H-indol-2-yl)-1-methyl-1,6,7,8-tetrahydro-5H-imidazo[4,5-g]isoquinolin-5-one] | 101 to 500 |
| Cn1c(-c2cc3ccc(C(=O)O)cc3n2CC2CC2)nc2cc3c(cc21)CCN(C[C@H](N)CF)C3=O [Example 67, (S)-2-(6-(2-amino-3-fluoropropyl)-1-methyl-5-oxo-5,6,7,8-tetrahydro-1H-imidazo[4,5-g]isoquinolin-2-yl)-1-(cyclopropylmethyl)-1H-indole-6-carboxylic acid] | > 1000 |
| CN(C)c1cccc2cc(-c3nc4cc5c(cc4n3C)CCN(C[C@H](N)CF)C5=O)n(CC3CC3)c12 [Example 69, (S)-6-(2-amino-3-fluoropropyl)-2-(1-(cyclopropylmethyl)-7-(dimethylamino)-1H-indol-2-yl)-1-methyl-1,6,7,8-tetrahydro-5H-imidazo[4,5-g]isoquinolin-5-one] | > 1000 |
| Cn1c(-c2cc3cccc(N4CCOCC4)c3n2CC2CC2)nc2cc3c(cc21)CCN(C[C@H](N)CF)C3=O [Example 70] | > 1000 |
| C[C@@H](N)CN1CCc2cc3c(cc2C1=O)nc(-c1cc2ccccc2n1CC1CCC1)n3C [Example 71, (R)-6-(2-aminopropyl)-2-(1-(cyclobutylmethyl)-1H-indol-2-yl)-1-methyl-1,6,7,8-tetrahydro-5H-imidazo[4,5-g]isoquinolin-5-one] | 101 to 500 |
| C[C@@H](N)CN1CCc2cc3c(cc2C1=O)nc(-c1cc2ccccc2n1CC1CCCC1)n3C [Example 72, (R)-6-(2-aminopropyl)-2-(1-(cyclopentylmethyl)-1H-indol-2-yl)-1-methyl-1,6,7,8-tetrahydro-5H-imidazo[4,5-g]isoquinolin-5-one] | 101 to 500 |
| C[C@@H](N)CN1CCc2cc3c(cc2C1=O)nc(-c1cc2ccccc2n1CC12CC(C1)C2)n3C [Example 73, (R)-6-(2-aminopropyl)-2-(1-(bicyclo[1.1.1]pentan-1-ylmethyl)-1H-indol-2-yl)-1-methyl-1,6,7,8-tetrahydro-5H-imidazo[4,5-g]isoquinolin-5-one] | > 1000 |
| CC(C)Cn1c(-c2nc3cc4c(cc3n2C)CCN(C[C@@H](C)N)C4=O)cc2ccccc21 [Example 74, (R)-6-(2-aminopropyl)-2-(1-isobutyl-1H-indol-2-yl)-1-methyl-1,6,7,8-tetrahydro-5H-imidazo[4,5-g]isoquinolin-5-one] | 501 to 1000 |
| COC1CC(Cn2c(-c3nc4cc5c(cc4n3C)CCN(C[C@@H](C)N)C5=O)cc3ccccc32)C1 (stereo partly drawn) [Example 75, (R)-6-(2-aminopropyl)-2-(1-((3-methoxycyclobutyl)methyl)-1H-indol-2-yl)-1-methyl-1,6,7,8-tetrahydro-5H-imidazo[4,5-g]isoquinolin-5-one] | 501 to 1000 |
